The nature of this data set: Compound formulation stability assay. The format is physicochemical. The note with it: 10 mg/mL in 10% DMSO/10% solutol HS 15/80% water, 2-8° C.

Molecules are shown by their SMILES.

For the compound `Cc1c(F)c(N)cc(C(=O)Nc2cc(-n3cc(C(=O)N4CCN(C)CC4)nn3)c(F)cc2N2C[C@@H](C)N(C)[C@@H](C)C2)c1Cl` [HYBI-084, 5-amino-2-chloro-4-fluoro-N-(4-fluoro-5-(4-(4-methylpiperazine-1-carbonyl)-1H-1,2,3-triazol-1-yl)-2-((3S,5R)-3,4,5-trimethylpiperazin-1-yl)phenyl)-3-methylbenzamide], where the note is “Day 0”, the “Accuracy % (Day 0)” value is on record as 92.8%, the “Formulation Appearance (Day 0)” value is “clear solution” and the “Remaining % (Day 0)” value came out at 100%. For the same compound, for the setting “Day 1”, the “Accuracy % (Day 1)” value is reported as 93.4%, the “Formulation Appearance (Day 1)” value is listed as “clear solution” and the “Remaining % (Day 1)” value was 101%. In addition, where the note is “Day 4”, the “Accuracy % (Day 4)” value is given as 92.9%, the “Formulation Appearance (Day 4)” value is “clear solution” and the “Remaining % (Day 4)” value is reported as 100%. For the same compound, for the setting “Day 7”, the “Accuracy % (Day 7)” value amounted to 91.5%, the “Formulation Appearance (Day 7)” value is “clear solution” and the “Remaining % (Day 7)” value is reported as 98.7%.
